In this experiment the target is T1, F508del (Homo sapiens, UniProt P13569, DEL508-508).
T1 construct: expressed in transfected cells
The experiment can be described thus: Protocol 1: membrane potential optical assay (FLIPR III, voltage sensing dye), identification of potentiator compounds. To be noted: Table 3, compounds of Table 1. The class given is cell-based. A digest of the protocol:
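NIH 3T3 fibroblasts stably expressing F508del were cultured at 27° C for 24 hrs for temperature correction, then treated with compounds or DMSO and loaded with a voltage-sensing redistribution dye. Forskolin added with a Cl⁻ gradient activated the channel; membrane-potential fluorescence on FLIPR III reported increased gating.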

Molecules are shown by their SMILES.

In US10758534B2 (Vertex Pharmaceuticals Incorporated, priority 2014, dated 2020) one finds EC30 data, which are given here for 20 molecules.

T1 sequence (P13569 with tags, fused parts or gaps DEL508-508): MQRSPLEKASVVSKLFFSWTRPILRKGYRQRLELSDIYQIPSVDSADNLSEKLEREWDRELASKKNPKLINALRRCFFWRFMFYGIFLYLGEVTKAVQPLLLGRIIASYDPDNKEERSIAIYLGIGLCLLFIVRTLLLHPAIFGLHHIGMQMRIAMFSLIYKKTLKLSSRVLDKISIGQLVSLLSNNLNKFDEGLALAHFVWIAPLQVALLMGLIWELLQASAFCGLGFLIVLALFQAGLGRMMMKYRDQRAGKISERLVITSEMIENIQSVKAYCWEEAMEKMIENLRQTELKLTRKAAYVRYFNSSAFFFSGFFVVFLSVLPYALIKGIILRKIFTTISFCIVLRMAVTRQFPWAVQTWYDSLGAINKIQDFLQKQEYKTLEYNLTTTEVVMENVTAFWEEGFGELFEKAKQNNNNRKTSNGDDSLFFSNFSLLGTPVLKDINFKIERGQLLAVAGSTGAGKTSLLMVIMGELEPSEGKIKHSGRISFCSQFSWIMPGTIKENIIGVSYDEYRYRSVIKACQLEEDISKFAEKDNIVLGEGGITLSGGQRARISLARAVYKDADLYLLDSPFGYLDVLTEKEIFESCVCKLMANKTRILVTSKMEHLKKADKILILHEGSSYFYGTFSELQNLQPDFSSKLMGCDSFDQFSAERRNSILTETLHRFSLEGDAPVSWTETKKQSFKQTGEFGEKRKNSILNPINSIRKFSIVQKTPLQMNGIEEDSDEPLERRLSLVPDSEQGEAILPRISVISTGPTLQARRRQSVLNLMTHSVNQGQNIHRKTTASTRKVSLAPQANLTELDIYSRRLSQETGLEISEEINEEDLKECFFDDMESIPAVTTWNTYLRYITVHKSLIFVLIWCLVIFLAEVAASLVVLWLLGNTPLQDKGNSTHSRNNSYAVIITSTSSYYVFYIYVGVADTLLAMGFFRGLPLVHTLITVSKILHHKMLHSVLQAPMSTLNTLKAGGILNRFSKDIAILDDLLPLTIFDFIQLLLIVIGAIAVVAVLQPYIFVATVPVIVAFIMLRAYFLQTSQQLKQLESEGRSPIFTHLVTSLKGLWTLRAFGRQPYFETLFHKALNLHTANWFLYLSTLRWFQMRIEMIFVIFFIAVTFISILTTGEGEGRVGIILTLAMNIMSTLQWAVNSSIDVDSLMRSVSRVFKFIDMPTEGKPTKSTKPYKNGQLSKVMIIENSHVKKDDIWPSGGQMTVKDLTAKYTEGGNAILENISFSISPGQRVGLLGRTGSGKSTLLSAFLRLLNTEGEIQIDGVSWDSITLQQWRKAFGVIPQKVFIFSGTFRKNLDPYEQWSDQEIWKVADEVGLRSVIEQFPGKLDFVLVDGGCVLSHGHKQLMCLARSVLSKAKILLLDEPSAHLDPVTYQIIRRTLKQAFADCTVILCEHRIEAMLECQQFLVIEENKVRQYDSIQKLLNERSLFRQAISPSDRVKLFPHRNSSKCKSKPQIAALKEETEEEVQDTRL

Turning to `COc1ccc(-c2ccc(C(=O)NS(=O)(=O)c3cccc(N)n3)c(Oc3c(C)cc(C)cc3C)n2)c(C)n1` [Compound 1212, N-[(6-amino-2-pyridyl)sulfonyl]-6-(6-methoxy-2-methyl-3-pyridyl)-2-(2,4,6-trimethylphenoxy)pyridine-3-carboxamide], the EC30 entry was “+++ (“+++” means <3 uM)”.

With `C[C@@H]1CC[C@H](C)N1c1nc(-c2ccc(OCC(C)(C)C)nc2)ccc1C(=O)NS(=O)(=O)c1cccc(N)n1` [Compound 1270, N-[(6-amino-2-pyridyl)sulfonyl]-6-[6-(2,2-dimethylpropoxy)-3-pyridyl]-2-[(2S,5R)-2,5-dimethylpyrrolidin-1-yl]pyridine-3-carboxamide], the EC30 result is reported as “+++ (“+++” means <3 uM)”.

For `CCCCCN1CCN(c2cccc(S(=O)(=O)NC(=O)c3cccnc3N3CC(C)CC3(C)C)n2)CC1` (centres unmarked) [Compound 1985, N—[[6-(4-pentylpiperazin-1-yl)-2-pyridyl]sulfonyl]-2-(2,2,4-trimethylpyrrolidin-1-yl)pyridine-3-carboxamide], the EC30 entry was “++ (“++” means between 3 uM and 10 uM)”.

As for `Cc1cc(C)c(CN2Cc3ccc(O)cc3C2(C)C(=O)NS(=O)(=O)c2cccc(N)n2)c(C)c1` (centres unmarked) [Compound 885, N-[(6-amino-2-pyridyl)sulfonyl]-6-hydroxy-1-methyl-2-[(2,4,6-trimethylphenyl)methyl]isoindoline-1-carboxamide], the EC30 result is “++ (“++” means between 3 uM and 10 uM)”.

`CCOC1CCN(c2nc(-c3ccc(OC(C)C)nc3)ccc2C(=O)NS(=O)(=O)c2cccc(N)n2)CC1` [Compound 1214, N-[(6-amino-2-pyridyl)sulfonyl]-2-(4-ethoxy-1-piperidyl)-6-(6-isopropoxy-3-pyridyl)pyridine-3-carboxamide]: the EC30 result is “++ (“++” means between 3 uM and 10 uM)”.

As for `C[C@@H]1CN(c2nc(-c3cnc4[nH]ccc4c3)ccc2C(=O)NS(=O)(=O)c2cccnc2N)C(C)(C)C1` [Compound 1714, N-[(2-amino-3-pyridyl)sulfonyl]-6-(1H-pyrrolo[2,3-b]pyridin-5-yl)-2-[(4S)-2,2,4-trimethylpyrrolidin-1-yl]pyridine-3-carboxamide], the EC30 result is “++ (“++” means between 3 uM and 10 uM)”.

For the molecule `CC(C)(C)c1ccc(C(=O)NS(=O)(=O)c2cccc(N)n2)c(Oc2ccc(F)cc2F)n1` [Compound 829, N-[(6-amino-2-pyridyl)sulfonyl]-6-tert-butyl-2-(2,4-difluorophenoxy)pyridine-3-carboxamide], the EC30 entry is on record as “+++ (“+++” means <3 uM)”.

As for `CCOc1ncc(-c2ccc(C(=O)NS(=O)(=O)c3cccc(N)n3)c(Oc3c(C)cc(C)cc3C)n2)cn1` [Compound 1130, N-[(6-amino-2-pyridyl)sulfonyl]-6-(2-ethoxypyrimidin-5-yl)-2-(2,4,6-trimethylphenoxy)pyridine-3-carboxamide], the EC30 result is “++ (“++” means between 3 uM and 10 uM)”.

On to `CCOc1cccc2c1CN(Cc1c(C)cc(C)cc1C)C2(C)C(=O)NS(=O)(=O)c1cccc(NC(=O)C(F)(F)F)n1` (centres unmarked) [Compound 1616, 4-ethoxy-1-methyl-N-[[6-[(2,2,2-trifluoroacetyl)amino]-2-pyridyl]sulfonyl]-2-[(2,4,6-trimethylphenyl)methyl]isoindoline-1-carboxamide], for which the EC30 result is “+++ (“+++” means <3 uM)”.

With `CC(C)COc1cc(F)cc(-c2ccc(C(=O)NS(=O)(=O)c3cccc(N)n3)c(N3CCC[C@H]3c3ccccc3)n2)c1` [Compound 1260, N-[(6-amino-2-pyridyl)sulfonyl]-6-(3-fluoro-5-isobutoxy-phenyl)-2-[(2S)-2-phenylpyrrolidin-1-yl]pyridine-3-carboxamide], the EC30 entry is given as “+++ (“+++” means <3 uM)”.

As to `CC1CN(c2nc(C(C)(C)C)c(Br)cc2C(=O)NS(=O)(=O)c2cccc(N)n2)C(C)(C)C1` (centres unmarked) [Compound 1628, N-[(6-amino-2-pyridyl)sulfonyl]-5-bromo-6-tert-butyl-2-(2,2,4-trimethylpyrrolidin-1-yl)pyridine-3-carboxamide], the EC30 entry is recorded as “+++ (“+++” means <3 uM)”.

On to `CC(C)Oc1ccc(-c2ccc(C(=O)NS(=O)(=O)c3cccc(N)n3)c(N3CCC(OCC4CC4)CC3)n2)cn1` [Compound 884, N-[(6-amino-2-pyridyl)sulfonyl]-2-[4-(cyclopropylmethoxy)-1-piperidyl]-6-(6-isopropoxy-3-pyridyl)pyridine-3-carboxamide], for which the EC30 result is “++ (“++” means between 3 uM and 10 uM)”.

Take `COc1ccc(-c2ccc(C(=O)NS(=O)(=O)c3cccc(N)n3)c(N3[C@H](C)CC[C@@H]3C)n2)cc1` [Compound 1215, N-[(6-amino-2-pyridyl)sulfonyl]-2-[(2S,5R)-2,5-dimethylpyrrolidin-1-yl]-6-(4-methoxyphenyl)pyridine-3-carboxamide]: the EC30 entry is “++ (“++” means between 3 uM and 10 uM)”.

Take `COc1cc(OC)cc(-c2ccc(C(=O)NS(=O)(=O)c3cccc(N)n3)c(N3C[C@@H](C)CC3(C)C)n2)c1` [Compound 1471, N-[(6-amino-2-pyridyl)sulfonyl]-6-(3,5-dimethoxyphenyl)-2-[(4S)-2,2,4-trimethylpyrrolidin-1-yl]pyridine-3-carboxamide]: the EC30 result was “+++ (“+++” means <3 uM)”.

With `COc1ncc(-c2ccc(C(=O)NS(=O)(=O)c3nccnc3N)c(Oc3ccc(C)cc3C)n2)cc1C` [Compound 893, N-(3-aminopyrazin-2-yl)sulfonyl-2-(2,4-dimethylphenoxy)-6-(6-methoxy-5-methyl-3-pyridyl)pyridine-3-carboxamide], the EC30 entry is given as “+++ (“+++” means <3 uM)”.

Turning to `CC(C)COc1cc(F)cc(-c2ccc(C(=O)NS(=O)(=O)c3cccc(N)n3)c(N3CCCCC3(C)C)n2)c1` [Compound 1004, N-[(6-amino-2-pyridyl)sulfonyl]-2-(2,2-dimethyl-1-piperidyl)-6-(3-fluoro-5-isobutoxy-phenyl)pyridine-3-carboxamide], the EC30 entry is reported as “+++ (“+++” means <3 uM)”.

In the case of `CC(C)CNc1cccc(-c2ccc(C(=O)NS(=O)(=O)c3cccc(N)n3)c(N3CC(C)CC3(C)C)n2)n1` (centres unmarked) [Compound 1059, N-[(6-amino-2-pyridyl)sulfonyl]-6-[6-(isobutylamino)-2-pyridyl]-2-(2,2,4-trimethylpyrrolidin-1-yl)pyridine-3-carboxamide], the EC30 result is reported as “+++ (“+++” means <3 uM)”.

As for `CC(C)CC(C)Nc1ccc(-c2ccc(C(=O)NS(=O)(=O)c3cccc(N)n3)c(N3[C@H](C)CC[C@@H]3C)n2)cn1` (stereo in doubt) [Compound 1463, N-[(6-amino-2-pyridyl)sulfonyl]-6-[6-[[(1 S)-1,3-dimethylbutyl]amino]-3-pyridyl]-2-[(2S,5R)-2,5-dimethylpyrrolidin-1-yl]pyridine-3-carboxamide], the EC30 entry is “+++ (“+++” means <3 uM)”.

With `Cc1ccc(Oc2nc(-c3cc(F)cc(OC(C)C)c3)ccc2C(=O)NS(=O)(=O)c2cccc(N)n2)c(C)c1` [Compound 1150, N-[(6-amino-2-pyridyl)sulfonyl]-2-(2,4-dimethylphenoxy)-6-(3-fluoro-5-isopropoxy-phenyl)pyridine-3-carboxamide], the EC30 entry was “+++ (“+++” means <3 uM)”.

In the case of `COc1cc(F)ccc1-c1ccc(C(=O)NS(=O)(=O)c2cccc(N)n2)c(Oc2c(C)cc(C)cc2C)n1` [Compound 830, N-[(6-amino-2-pyridyl)sulfonyl]-6-(4-fluoro-2-methoxy-phenyl)-2-(2,4,6-trimethylphenoxy)pyridine-3-carboxamide], the EC30 result is listed as “+++ (“+++” means <3 uM)”.
